The numbers were not newly measured in US20070161542A1, “Ptb1b photoprobes” (priority 2003, published 2007), which cites them from elsewhere.

Non-standard residues stand in square brackets, D forms with d. Residues, ends and D or L forms follow the SMILES beside them. *: point of attachment. F2Pmp = N[C@@H](Cc1ccc(C(F)(F)P(=O)(O)O)cc1)C(=O)O; Bz = O=C(c1ccccc1)*

For the series, the system named is PTP1B and TCPTP1B. Particulars: reference (23); cited from earlier work.

As for `NC(=O)[C@H](Cc1ccc(C(F)(F)P(=O)(O)O)cc1)NC(=O)[C@H](Cc1ccc(C(F)(F)P(=O)(O)O)cc1)NC(=O)[C@H](CCC(=O)O)NC(=O)c1ccccc1` [BzN-EJJ-AMIDE, N-benzoyl-L-glutamyl-[4-phosphono(difluoromethyl)]-L-phenylalanyl-[4-phosphono(difluoromethyl)]-L-phenylanalininamide] (Bz-Glu-[F2Pmp]-[F2Pmp]-NH2), the inhibitor character result is “selective, potent inhibitor”.
